Data set [1] is filed under the species Homo sapiens. Description: Liver toxicity in human assessed as induction of drug-induced liver injury by measuring verified drug-induced liver injury concern status.
For data set [2], the species on record is Homo sapiens. Briefly: Liver toxicity in human assessed as induction of drug-induced liver injury by measuring severity class index.

Structures are written as SMILES.
Wherever DILI severity class is given: key of the grades not given here.

In the case of `COc1cc(NCc2ccc3nc(N)nc(N)c3c2C)cc(OC)c1OC` [TRIMETREXATE], the DILI_Concern result in the data set listed under Homo sapiens [1] was “Ambiguous-Dili-Concern”. The DILI_severity_class in the data set filed under Homo sapiens [2] is 3.

Regarding `CC(C)c1nc(N(C)S(C)(=O)=O)nc(-c2ccc(F)cc2)c1/C=C/[C@@H](O)C[C@@H](O)CC(=O)O` [ROSUVASTATIN], in the data set listed under Homo sapiens [1], the DILI_Concern entry is on record as “Less-Dili-Concern”. For the same compound, the DILI_severity_class in the data set filed under Homo sapiens [2] turned out to be 3.

Turning to `Nc1nc(O)c2ncn(COC(CO)CO)c2n1` [GANCICLOVIR], the DILI_Concern result in the data set filed under Homo sapiens [1] is given as “Ambiguous-Dili-Concern”. Also, the DILI_severity_class in the data set filed under Homo sapiens [2] is reported as 7.

Take `CCN(C)C(=O)Oc1cccc([C@H](C)N(C)C)c1` [RIVASTIGMINE]: in the data set listed under Homo sapiens [1], the DILI_Concern result is recorded as “Less-Dili-Concern”. Moreover, the DILI_severity_class in the data set filed under Homo sapiens [2] was 3.

Consider `CN[C@@H](C)[C@@H](O)c1ccccc1` [PSEUDOEPHEDRINE], for which the DILI_Concern entry in the data set filed under Homo sapiens [1] is given as “No-Dili-Concern”. For the same compound, in the data set filed under Homo sapiens [2], the DILI_severity_class worked out at 0.

For the compound `CCN1C(=O)NC(c2ccccc2)C1=O` (stereo unspecified) [ETHOTOIN], the DILI_Concern entry in the data set filed under Homo sapiens [1] was “Ambiguous-Dili-Concern”. Also, the DILI_severity_class in the data set listed under Homo sapiens [2] turned out to be 3.

`COc1cc([C@@H]2c3cc4c(cc3[C@@H](O[C@@H]3O[C@@H]5CO[C@@H](C)O[C@H]5[C@H](O)[C@H]3O)[C@H]3COC(=O)[C@H]23)OCO4)cc(OC)c1O` [ETOPOSIDE]: the DILI_Concern result in the data set filed under Homo sapiens [1] is given as “Less-Dili-Concern”. Besides, the DILI_severity_class in the data set filed under Homo sapiens [2] amounted to 3.

Consider `Cl.NCCNCCNCCN`, for which the DILI_Concern entry in the data set listed under Homo sapiens [1] is recorded as “No-Dili-Concern”. In the data set listed under Homo sapiens [2], the DILI_severity_class was determined as 1.

In the case of `CCC[C@H](N[C@@H](C)C(=O)N1[C@H](C(=O)O)C[C@@H]2CCCC[C@@H]21)C(=O)OCC` [PERINDOPRIL], in the data set listed under Homo sapiens [1], the DILI_Concern entry is “Ambiguous-Dili-Concern”. For the same compound, the DILI_severity_class in the data set listed under Homo sapiens [2] was determined as 3.

As for `CCCSc1ccc2nc(NC(=O)OC)[nH]c2c1` [ALBENDAZOLE], the DILI_Concern result in the data set listed under Homo sapiens [1] is listed as “Most-Dili-Concern”. For the same compound, the DILI_severity_class in the data set listed under Homo sapiens [2] was 7.

As to `Cc1ccc(C(=O)c2cc(O)c(O)c([N+](=O)[O-])c2)cc1` [TOLCAPONE], the DILI_Concern entry in the data set filed under Homo sapiens [1] was “Most-Dili-Concern”. Also, the DILI_severity_class in the data set listed under Homo sapiens [2] is given as 8.

Regarding `Clc1ccc2c(c1)CCc1cccnc1C2=C1CCNCC1` [DESLORATADINE], in the data set listed under Homo sapiens [1], the DILI_Concern result was “Less-Dili-Concern”. Further, the DILI_severity_class in the data set filed under Homo sapiens [2] is listed as 3.

In the case of `CNS(=O)(=O)Cc1ccc2[nH]cc(CCN(C)C)c2c1`, in the data set listed under Homo sapiens [1], the DILI_Concern result is reported as “Ambiguous-Dili-Concern”. For the same compound, the DILI_severity_class in the data set filed under Homo sapiens [2] turned out to be 3.

On to `CN1CCN2c3ncccc3Cc3ccccc3C2C1` (stereo unspecified) [MIRTAZAPINE], for which, in the data set filed under Homo sapiens [1], the DILI_Concern result is recorded as “Less-Dili-Concern”. Further, the DILI_severity_class in the data set filed under Homo sapiens [2] was determined as 3.

Turning to `C[C@@H](NCCCc1cccc(C(F)(F)F)c1)c1cccc2ccccc12`, the DILI_Concern entry in the data set filed under Homo sapiens [1] was “No-Dili-Concern”. Moreover, the DILI_severity_class in the data set filed under Homo sapiens [2] is given as 0.

On to `CCOC(=O)C(C)(C)Oc1ccc(Cl)cc1` [CLOFIBRATE], for which the DILI_Concern result in the data set listed under Homo sapiens [1] was “Less-Dili-Concern”. Also, the DILI_severity_class in the data set listed under Homo sapiens [2] amounted to 3.

With `OCCN1C[C@H](O)[C@@H](O)[C@H](O)[C@H]1CO` [MIGLITOL], the DILI_Concern entry in the data set listed under Homo sapiens [1] is reported as “No-Dili-Concern”. The DILI_severity_class in the data set filed under Homo sapiens [2] was 0.

`CC(C)C[C@H](NC(=O)[C@H](CCCCN)NC(=O)CNC(=O)[C@H](CC(C)C)NC(=O)[C@@H](NC(=O)[C@@H]1CSSC[C@H](N)C(=O)N[C@@H](CO)C(=O)N[C@@H](CC(N)=O)C(=O)N[C@@H](CC(C)C)C(=O)N[C@@H](CO)C(=O)N[C@@H]([C@@H](C)O)C(=O)N1)C(C)C)C(=O)N[C@@H](CO)C(=O)N[C@@H](CCC(N)=O)C(=O)N[C@@H](CCC(=O)O)C(=O)N[C@@H](CC(C)C)C(=O)N[C@@H](Cc1c[nH]cn1)C(=O)N[C@@H](CCCCN)C(=O)N[C@@H](CC(C)C)C(=O)N[C@@H](CCC(N)=O)C(=O)N[C@H](C(=O)N[C@@H](Cc1ccc(O)cc1)C(=O)N1CCC[C@H]1C(=O)N[C@@H](CCCNC(=N)N)C(=O)N[C@H](C(=O)N[C@@H](CC(N)=O)C(=O)N[C@H](C(=O)NCC(=O)N[C@@H](CO)C(=O)NCC(=O)N[C@H](C(=O)N1CCC[C@H]1C(N)=O)[C@@H](C)O)[C@@H](C)O)[C@@H](C)O)[C@@H](C)O` [CALCITONIN SALMON]: the DILI_Concern entry in the data set filed under Homo sapiens [1] is given as “No-Dili-Concern”. For the same compound, in the data set listed under Homo sapiens [2], the DILI_severity_class is on record as 0.

The values above are taken from ChEMBL document CHEMBL4028802, “DILIrank: the largest reference drug list ranked by the risk for developing drug-induced liver injury in humans” (Drug Discov Today, 2016).
